Experimental data reported in ChEMBL document CHEMBL4152208, “Synthesis and structure-activity relationships of quinolinone and quinoline-based P2X7 receptor antagonists and their anti-sphere formation activities in glioblastoma cells” (Eur J Med Chem, 2018).
The source made the active and inactive calls. The rule behind the calls is not given here.

Assays:
[1] = target: T1, P2X purinoceptor 7 (Homo sapiens) (UniProt Q99572); experiment: Antagonist activity at P2X7 in LPS/IFN gamma differentiated human THP-1 cells assessed as inhibition of BzATP-induced IL-1beta release at 10 uM preincubated for 30 mins followed by BzATP stimulation for 30 mins by ELISA; format: cell-based
T1 sequence (whole entry): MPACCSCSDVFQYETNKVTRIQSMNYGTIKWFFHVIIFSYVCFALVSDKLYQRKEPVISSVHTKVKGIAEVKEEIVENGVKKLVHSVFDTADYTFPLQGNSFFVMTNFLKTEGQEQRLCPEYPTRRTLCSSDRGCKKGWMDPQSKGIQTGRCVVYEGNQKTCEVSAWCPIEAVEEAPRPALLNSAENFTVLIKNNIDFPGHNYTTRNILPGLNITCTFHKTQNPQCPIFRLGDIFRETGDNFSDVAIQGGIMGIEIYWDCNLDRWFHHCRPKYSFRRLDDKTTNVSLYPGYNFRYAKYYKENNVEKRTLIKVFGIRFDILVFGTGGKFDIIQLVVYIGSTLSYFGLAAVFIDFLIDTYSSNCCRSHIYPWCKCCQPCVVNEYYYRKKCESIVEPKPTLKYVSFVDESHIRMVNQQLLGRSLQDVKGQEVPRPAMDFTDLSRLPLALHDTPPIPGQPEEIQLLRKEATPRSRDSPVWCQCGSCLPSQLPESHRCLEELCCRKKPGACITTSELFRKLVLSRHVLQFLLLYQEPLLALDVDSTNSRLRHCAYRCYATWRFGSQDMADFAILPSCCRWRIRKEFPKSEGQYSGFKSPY

P2X purinoceptor 7 [2] = target: T2, P2X purinoceptor 7 (Homo sapiens, UniProt Q99572); experiment: Antagonist activity at human P2X7 receptor expressed in HEK293 cells assessed as inhibition of BzATP-induced EtBr uptake after 2 hrs by fluorescence assay relative to control; format: cell-based
T2 sequence (Q99572 whole entry): T1 sequence (whole entry)

[3] = target: T1, P2X purinoceptor 7 (Homo sapiens); experiment: Antagonist activity at human P2X7 receptor expressed in HEK293 cells assessed as inhibition of BzATP-induced EtBr uptake at 10 uM after 2 hrs by fluorescence assay relative to control; format: cell-based
[4] = target: T1, P2X purinoceptor 7 (Homo sapiens); experiment: Antagonist activity at human P2X7 receptor expressed in HEK293 cells assessed as inhibition of BzATP-induced EtBr uptake at 1 uM after 2 hrs by fluorescence assay relative to control; format: cell-based
[5] = target: T1, P2X purinoceptor 7 (Homo sapiens); experiment: Antagonist activity at P2X7 in LPS/IFN gamma differentiated human THP-1 cells assessed as inhibition of BzATP-induced IL-1beta release at 1 uM preincubated for 30 mins followed by BzATP stimulation for 30 mins by ELISA; format: cell-based
[6] = Kinetic solubility of the compound in PAMPA buffer at 12.5 uM by nepheolometry method; format: physicochemical
[7] = Metabolic stability in human liver microsomes assessed as parent compound remaining at 1 uM up to 30 mins in presence of NADPH by LC-MS/MS analysis; format: ADME, microsome; conditions: read-out: Stability
[8] = Metabolic stability in mouse liver microsomes assessed as parent compound remaining at 1 uM up to 30 mins in presence of NADPH by LC-MS/MS analysis; format: ADME, microsome; conditions: read-out: Stability
[9] = Kinetic solubility of the compound in PAMPA buffer at 50 uM by nepheolometry method; format: physicochemical
Homo sapiens [10] = species: Homo sapiens; experiment: Antiproliferative activity against human TS15-88 cells at 50 uM after 72 hrs by MTS assay; format: functional, cell-based
[11] = Inhibition of neurosphere formation in human TS15-88 cells assessed as decrease in sphere size at 50 uM after 5 days by microscopic analysis relative to control; format: functional; conditions: 120 h
P2X purinoceptor 7 [12] = target: T2, P2X purinoceptor 7; experiment: Antagonist activity at P2X7 in LPS/IFN gamma differentiated human THP-1 cells assessed as inhibition of BzATP-induced IL-1beta release preincubated for 30 mins followed by BzATP stimulation for 30 mins by ELISA; format: cell-based
[13] = Kinetic solubility of the compound in PAMPA buffer at 25 uM by nepheolometry method; format: physicochemical
[14] = Cytotoxicity against HEK293 cells expressing human P2X7 receptor assessed as cell survival at 10 uM by MTT assay relative to control; format: cell-based; conditions: read-out: Survival
[15] = Metabolic stability in rat liver microsomes assessed as parent compound remaining at 1 uM up to 30 mins in presence of NADPH by LC-MS/MS analysis; format: ADME, microsome; conditions: read-out: Stability
[16] = Effective permeability of the compound at 50 uM after 4 hrs by BBB-PAMPA method; format: ADME; conditions: read-out: Peff
Homo sapiens [17] = species: Homo sapiens; experiment: Antiproliferative activity against human TS15-88 cells at 50 uM after 24 hrs by MTS assay; format: functional, cell-based
P2X purinoceptor 7 [18] = target: T2, P2X purinoceptor 7; experiment: Antagonist activity at human P2X7 receptor in expressed in HEK293 cells assessed as inhibition of BzATP-induced EtBr uptake; format: cell-based
[19] = Antiproliferative activity against human TS15-88 cells after 24 to 72 hrs by MTS assay; format: functional, cell-based
P2X purinoceptor 3 = target: T3, P2X purinoceptor 3 (Homo sapiens, UniProt P56373); experiment: Antagonist activity at human P2X3 receptor expressed in 1321N1 cells assessed as inhibition of ATP-induced calcium flux measured for 30 secs at 0.4 secs intervals by Flou-4-AM dye based fluorescence assay; format: cell-based; conditions: read-out: IC50
T3 sequence (P56373 whole entry): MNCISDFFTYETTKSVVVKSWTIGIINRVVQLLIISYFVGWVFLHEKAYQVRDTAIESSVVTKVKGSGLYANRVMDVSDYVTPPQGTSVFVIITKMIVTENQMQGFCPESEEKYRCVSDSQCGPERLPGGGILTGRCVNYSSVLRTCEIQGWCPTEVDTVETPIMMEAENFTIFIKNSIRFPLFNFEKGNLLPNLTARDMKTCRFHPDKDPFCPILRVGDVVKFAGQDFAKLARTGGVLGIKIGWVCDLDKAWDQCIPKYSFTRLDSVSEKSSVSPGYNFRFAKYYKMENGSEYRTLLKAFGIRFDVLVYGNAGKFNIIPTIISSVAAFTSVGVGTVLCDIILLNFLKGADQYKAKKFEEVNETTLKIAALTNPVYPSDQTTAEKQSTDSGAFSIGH

Structure (SMILES) | inhibition [1] [%] | IC50 (P2X purinoceptor 7 [2]) [nM] | inhibition [3] [%] | inhibition [4] [%] | IC50 (P2X purinoceptor 7 [12]) [nM] | viability at 10 µM [14] [%] | other results
COC(=O)c1cc2c(NC(=O)C34CC5CC(CC(C5)C3)C4)cccc2n(Cc2ccc([N+](=O)[O-])cc2)c1=O | 42 | 809 | 85 | 61 |  |  | inhibition [5]: 38%
Nc1ccc(-c2ccc3c(NC(=O)CC45CC6CC(CC(C6)C4)C5)cccc3n2)cc1 |  | 10 | 93 | 85 | 19 | 98 | Kinetic_solubility [6]: Soluble; remaining at 0.5 h, 1 µM [7]: 15.5%; remaining at 0.5 h, 1 µM [8]: 13.3%; Kinetic_solubility [9]: Soluble; Activity (Homo sapiens [10]): Active; inhibition at 50 µM [11]: > 50%; Kinetic_solubility [13]: Soluble; remaining at 0.5 h, 1 µM [15]: 10.6%; Papp at 4 h, 50 µM [16]: 24.9 ×10⁻⁶ cm/s; Activity (Homo sapiens [17]): Active
O=C(CC12CC3CC(CC(C3)C1)C2)Nc1cccc2nc(-c3ccc(Cl)cc3)ccc12 |  | 123 | 90 | 89 | 178 | 98 | 
O=C(CC12CC3CC(CC(C3)C1)C2)Nc1cccc2nc(-c3ccccc3)ccc12 |  | 447 | 86 | 78 | 434 | 98 | 
O=C(CC12CC3CC(CC(C3)C1)C2)Nc1cccc2nc(-c3ccc(CO)cc3)ccc12 |  | 3 | 98 | 95 | 12 | 95 | Kinetic_solubility [6]: Soluble; remaining at 0.5 h, 1 µM [7]: 17.9%; remaining at 0.5 h, 1 µM [8]: 17%; Kinetic_solubility [9]: Soluble; Activity (Homo sapiens [10]): Active; inhibition at 50 µM [11]: > 50%; Kinetic_solubility [13]: Soluble; remaining at 0.5 h, 1 µM [15]: 11.2%; Papp at 4 h, 50 µM [16]: 17.7 ×10⁻⁶ cm/s; Activity (Homo sapiens [17]): Active
O=C1NC(=O)C(C2CCN(C(=O)c3ccc(Cl)c(C(F)(F)F)c3)CC2)C1Cc1ccc(OS(=O)(=O)c2cccc3cnccc23)cc1 (centres undefined) |  |  |  |  |  |  | IC50 (P2X purinoceptor 7 [18]): 54 nM
CN([C@@H](Cc1ccc(OS(=O)(=O)c2cccc3cnccc23)cc1)C(=O)N1CCN(c2ccccc2)CC1)S(=O)(=O)c1cccc2cnccc12 | 96 |  |  | 79 |  | 93 | 
CCOC(=O)c1cc2c(NC(=O)C34CC5CC(CC(C5)C3)C4)cccc2n(Cc2ccc(OC)cc2)c1=O | 44 | 62 | 88 | 86 |  |  | inhibition [5]: 7%
Clc1cccc(-c2nnnn2Cc2cccnc2)c1Cl |  |  |  |  |  |  | IC50 (P2X purinoceptor 7 [18]): 300 nM
CCCOC(=O)c1cc2c(NC(=O)C34CC5CC(CC(C5)C3)C4)cccc2n(Cc2ccc(OC)cc2)c1=O | 28 | 263 | 87 | 82 |  |  | inhibition [5]: 11%
COC(=O)c1cc2c(NC(=O)C34CC5CC(CC(C5)C3)C4)cccc2n(Cc2ccc(OC)cc2)c1=O | 49 | 120 | 87 | 76 |  |  | inhibition [5]: inactive
COC(=O)c1cc2c(NC(=O)C34CC5CC(CC(C5)C3)C4)cccc2n(Cc2ccc(F)cc2)c1=O | 35 | 888 | 86 | 66 |  |  | inhibition [5]: 12%
O=C(CC12CC3CC(CC(C3)C1)C2)Nc1cccc2nc(-c3ccc([N+](=O)[O-])cc3)ccc12 |  | 73 | 94 | 79 | 113 | 93 | 
COc1ccc(CCN(C)CCCC(C#N)(c2ccc(OC)c(OC)c2)C(C)C)cc1OC (centres undefined) |  |  |  |  |  |  | remaining at 0.5 h, 1 µM [7]: 10.5%
O=C(CC12CC3CC(CC(C3)C1)C2)Nc1cccc2nc(-c3ccc(O)cc3)ccc12 |  | 8 | 95 | 79 | 6 | 94 | Kinetic_solubility [6]: Soluble; remaining at 0.5 h, 1 µM [7]: 21.5%; remaining at 0.5 h, 1 µM [8]: 14.5%; Kinetic_solubility [9]: Soluble; Activity (Homo sapiens [10]): Active; inhibition at 50 µM [11]: > 50%; Kinetic_solubility [13]: Soluble; remaining at 0.5 h, 1 µM [15]: 12.9%; IC50 [19]: 25600 nM; Papp at 4 h, 50 µM [16]: 16.4 ×10⁻⁶ cm/s; Activity (Homo sapiens [17]): Active
N[C@H]1CCN(Cc2ccc(Cl)c(C(=O)NCC34CC5CC(CC(C5)C3)C4)c2)C1 |  |  |  |  |  |  | IC50 (P2X purinoceptor 7 [18]): 85 nM
CC(=O)[C@H]1CC[C@H]2[C@@H]3CCC4=CC(=O)CC[C@]4(C)[C@H]3CC[C@]12C [PROGESTERONE] |  |  |  |  |  |  | IC50 (P2X purinoceptor 3): 1600 nM; Papp at 4 h, 50 µM [16]: 36.6 ×10⁻⁶ cm/s
COC(=O)c1ccc(-c2ccc3c(NC(=O)CC45CC6CC(CC(C6)C4)C5)cccc3n2)cc1 |  | 7 | 95 | 90 | 33 | 97 | Activity (Homo sapiens [10]): Active; inhibition at 50 µM [11]: > 50%; IC50 [19]: 35600 nM; Activity (Homo sapiens [17]): Active
